This passage reports inhibition, Activity and IC50 results from ChEMBL document CHEMBL4673351, “3α-Angeloyloxy-ent-kaur-16-en-19-oic Acid Isolated from Wedelia trilobata L. Alleviates Xylene-Induced Mouse Ear Edema and Inhibits NF-κB and MAPK Pathway in LPS-Stimulated Macrophages” (J Nat Prod, 2020).

Data set [1] relates to RAW264.7. In words: Inhibition of ERK phosphorylation in LPS-induced mouse RaW264.7 cells up to 30 uM after 24 hrs by Western blot analysis. The following applies: dose microM <=30, time 24.0 hrs. On the technique in general: In western blotting, separated proteins are transferred to a membrane and probed.
Data set [2] has as its system Mus musculus. In words: Antiinflammatory activity in Kunming mouse assessed as reduction in xylene-induced vasodilation in ear at 50 mg/kg administered topically pretreated for 30 mins followed by xylene-treatment and measured after 30 mins by H and E staining based microscopic method. The data set is classed as functional, organism-based. The following applies: time 60.0 min.

For data set [3], the target named is MAP kinase p38 (Mus musculus) (UniProt P47811+O08911+Q9WUI1+Q9Z1B7). In words: Inhibition of p38 phosphorylation in LPS-induced mouse RaW264.7 cells up to 30 uM after 24 hrs by Western blot analysis. The following applies: dose microM <=30, time 24.0 hrs.
Data set [4] relates to RAW264.7. As to the kind of experiment: Cytotoxicity against mouse RAW264.7 cells assessed as reduction in cell viability up to 60 uM after 24 hrs in presence of LPS by MTT assay. The data set is classed as cell-based. The following applies: raw264.7, 24 h. (In general: Tetrazolium dyes change colour on reduction, which living cells bring about.)
The test system of data set [5] is Mus musculus. As to the kind of experiment: Antiinflammatory activity in Kunming mouse assessed as reduction in xylene-induced cell infiltration in ear at 50 mg/kg administered topically pretreated for 30 mins followed by xylene-treatment and measured after 30 mins by H and E staining based microscopic method. The data set is classed as functional, organism-based. The following applies: time 60.0 min.

The test system of data set [6] is RAW264.7. As to the kind of experiment: Cytotoxicity against mouse RAW264.7 cells assessed as reduction in cell viability up to 80 uM after 24 hrs by MTT assay. The following applies: raw264.7, 24 h. The data set is classed as cell-based.
Data set [7] deals with Mus musculus. In words: Antiinflammatory activity in Kunming mouse assessed as reduction in xylene-induced ear edema at 50 mg/kg administered topically pretreated for 30 mins followed by xylene-treatment and measured after 30 mins relative to control. On the set-up: scale not given: the % may be the effect or the level left. The data set is classed as functional. The following applies: time 60 min, 1 h.

For data set [8], the system named is RAW264.7. As to the kind of experiment: Inhibition of NF-kappaB activation in mouse RaW264.7 cells assessed as reduction in LPS-induced IL-6 mRNA expression after 24 hrs by qRT-PCR analysis. The data set is classed as cell-based.
For data set [9], the system named is RAW264.7. In words: Inhibition of LPS-induced ROS generation in mouse RAW264.7 cells up to 40 uM after 24 hrs by DCFH-DA staining based fluorescence assay. The following applies: dose microM <=40, time 24.0 hrs. The data set is classed as functional, cell-based.
In data set [10] the test system is RAW264.7. In words: Inhibition of NF-kappaB phosphorylation in LPS-induced mouse RaW264.7 cells up to 30 uM after 24 hrs by Western blot analysis. The following applies: dose microM <=30, time 24.0 hrs.
The nature of data set [11]: (§1) Inhibition of NF-kappaB activation in mouse RaW264.7 cells assessed as reduction in LPS-induced PGE2 production after 24 hrs by ELISA. The data set is classed as cell-based. The following applies: RAW264.7, 24 h. (An ELISA detects its analyte on a solid surface through an enzyme-linked reagent.)
The test system of data set [12] is RAW264.7. Described as §1. The data set is classed as cell-based.
Data set [13] deals with RAW264.7. As to the kind of experiment: Inhibition of NF-kappaB activation in mouse RaW264.7 cells assessed as reduction in LPS-induced IL-6 protein expression up to 30 uM after 24 hrs by Western blot analysis. The data set is classed as cell-based. The following applies: dose microM <=30, time 24.0 hrs.
In data set [14] the test system is RAW264.7. In words: Inhibition of LPS-induced iNOS protein expression in mouse RAW264.7 cells up to 30 uM after 24 hrs by Western blot analysis. The data set is classed as functional, cell-based. The following applies: dose microM <=30, time 24.0 hrs.
Data set [15] concerns RAW264.7. In words: Inhibition of NF-kappaB p65 nuclear translocation in LPS-induced mouse RaW264.7 cells at 20 uM after 24 hrs by DAPI staining based Immunofluorescence assay.
For data set [16], the system named is RAW264.7. In words: Inhibition of NF-kappaB in mouse RaW264.7 cells assessed as reduction in LPS-induced IkappaBalpha degradation up to 30 uM after 24 hrs by Western blot analysis. The data set is classed as cell-based. The following applies: dose microM <=30, time 24.0 hrs.
Data set [17] concerns RAW264.7. As to the kind of experiment: Inhibition of LPS-induced COX-2 mRNA expression in mouse RAW264.7 cells after 24 hrs by qRT-PCR analysis. The data set is classed as functional, cell-based.
Data set [18] concerns RAW264.7. In words: Inhibition of JNK phosphorylation in LPS-induced mouse RaW264.7 cells up to 30 uM after 24 hrs by Western blot analysis. The following applies: dose microM <=30, time 24.0 hrs.
Data set [19] concerns RAW264.7. As to the kind of experiment: Inhibition of NF-kappaB activation in mouse RaW264.7 cells assessed as reduction in LPS-induced TNF-alpha protein expression up to 30 uM after 24 hrs by Western blot analysis. The following applies: dose microM <=30, time 24.0 hrs. The data set is classed as cell-based.
The subject of data set [20] is RAW264.7. In words: Inhibition of LPS-induced mitochondrial membrane potential loss in mouse RAW264.7 cells at 20 uM after 24 hrs by JC-1 staining based fluorescence microscopic method. The data set is classed as functional, cell-based.
The nature of data set [21]: (§2) Inhibition of NF-kappaB activation in mouse RaW264.7 cells assessed as reduction in LPS-induced NO production after 24 hrs by Griess reagent based assay. The following applies: RAW264.7, 24 h. The data set is classed as cell-based.
Data set [22] deals with RAW264.7. Described as §2. The data set is classed as cell-based.
For data set [23], the system named is RAW264.7. As to the kind of experiment: Inhibition of LPS-induced iNOS mRNA expression in mouse RAW264.7 cells after 24 hrs by qRT-PCR analysis. The data set is classed as functional, cell-based.
Data set [24] concerns RAW264.7. As to the kind of experiment: Inhibition of LPS-induced COX-2 protein expression in mouse RAW264.7 cells up to 30 uM after 24 hrs by Western blot analysis. The data set is classed as functional, cell-based. The following applies: dose microM <=30, time 24.0 hrs.
Data set [25] concerns RAW264.7. As to the kind of experiment: Inhibition of NF-kappaB activation in mouse RaW264.7 cells assessed as reduction in LPS-induced TNFalpha mRNA expression after 24 hrs by qRT-PCR analysis. The data set is classed as cell-based.
Data set [26] concerns RAW264.7. In words: Inhibition of IKKalpha/beta phosphorylation in LPS-induced mouse RaW264.7 cells up to 30 uM after 24 hrs by Western blot analysis. The following applies: dose microM <=30, time 24.0 hrs.
Data set [27] relates to Mus musculus. As to the kind of experiment: Antiinflammatory activity in Kunming mouse assessed as reduction in xylene-induced ear edema at 25 mg/kg administered topically pretreated for 30 mins followed by xylene-treatment and measured after 30 mins relative to control. The data set is classed as functional. Set-up: scale not given: the % may be the effect or the level left. The following applies: time 60 min, 1 h.

Data set [28] deals with Mus musculus. As to the kind of experiment: Antiinflammatory activity in Kunming mouse assessed as reduction in xylene-induced cell infiltration in ear at 5 mg/kg administered topically pretreated for 30 mins followed by xylene-treatment and measured after 30 mins by H and E staining based microscopic method. The data set is classed as functional, organism-based. The following applies: time 60.0 min.

In data set [29] the test system is Mus musculus. As to the kind of experiment: Antiinflammatory activity in Kunming mouse assessed as reduction in xylene-induced vasodilation in ear at 5 mg/kg administered topically pretreated for 30 mins followed by xylene-treatment and measured after 30 mins by H and E staining based microscopic method. The data set is classed as functional, organism-based. The following applies: time 60.0 min.

For data set [30], the system named is Mus musculus. As to the kind of experiment: Antiinflammatory activity in Kunming mouse assessed as reduction in xylene-induced ear edema at 5 mg/kg administered topically pretreated for 30 mins followed by xylene-treatment and measured after 30 mins relative to control. The data set is classed as functional. On the set-up: scale not given: the % may be the effect or the level left. The following applies: time 60 min, 1 h.

Calls of active or inactive are those of the source. No cut-off for these calls is given here.

Broadly, the IC50 is the concentration that inhibits the measured activity by half.

On to `C=C1C[C@@]23CC[C@H]4[C@@](C)(CC[C@@H](OC(=O)/C(C)=C\C)[C@@]4(C)C(=O)O)[C@@H]2CC[C@@H]1C3`, for which the inhibition entry (with RAW264.7 [1]; in data set [3]; with RAW264.7 [9]; in the data set with RAW264.7 [10]; with RAW264.7 [13]; in the data set on RAW264.7 [14]) was “Active” each time. Further, the inhibition result in the data set with RAW264.7 [15], in the data set with RAW264.7 [16], in the data set with RAW264.7 [18], with RAW264.7 [19], with RAW264.7 [20] and in the data set with RAW264.7 [24] was “Active” in each case. Also, the inhibition entry in the data set on RAW264.7 [26] was “Active”. Further, the result in the data set on Mus musculus [2] and in the data set with Mus musculus [5] was Active. Besides, the Activity result in the data set on RAW264.7 [4] is “Non-Toxic”; in the data set with RAW264.7 [6] it was “Non-Toxic”; in the data set with Mus musculus [7], 51.57%; with Mus musculus [27] it was 42.44%. In addition, the inhibition entry with RAW264.7 [8], in the data set with RAW264.7 [12], with RAW264.7 [17], with RAW264.7 [22], in the data set on RAW264.7 [23] and with RAW264.7 [25] was “Dose-dependent effect” in each case. In addition, the IC50 in data set [11] and in data set [21] was 20.3 µM in each case.
`C[C@]12CCC(=O)C=C1CC[C@@H]1[C@@H]2[C@@H](O)C[C@@]2(C)[C@H]1CC[C@]2(O)C(=O)CO` [HYDROCORTISONE]: the result in the data set with Mus musculus [28] and with Mus musculus [29] was Active. Moreover, in the data set on Mus musculus [30], the Activity was determined as 55.53%.
For `C=C1C[C@@]23CC[C@H]4[C@@](C)(CCC[C@@]4(C)C(=O)O)[C@@H]2CC[C@@H]1C3` [KAURENOIC ACID], the IC50 in [21] amounted to 50 µM.
